Tests used:
[1] = system: Corn; experiment: Phytotoxicity Test, corn; settings: 2500 ppm spray, ten days
Protocol: (§1) Experiments were also conducted to determine the phytotoxicity of representative compounds with respect to healthy fresh plants. […] The test plants were sprayed in accordance with the procedure described above for the Mite Foliage Spray Test so as to deliver approximately 100 milliliters of test solution to the leaves of each plant tested. The sprayed plants and controls were set aside for approximately one hour to allow the foliage to dry and were then placed in the greenhouse. After ten days the plants were visually inspected to determine the extent of foliage injury. A rating of 1 indicates no perceptible injury; 5 indicates the plant was dead and ratings of 2, 3 and 4 indicate intermediate degrees of injury based upon the number and extent to which leaves were injured.

[2] = system: Soy; experiment: Phytotoxicity Test, soy; settings: 2500 ppm spray, ten days
Protocol: as §1

[3] = system: Bean; experiment: Phytotoxicity Test, bean; settings: 2500 ppm spray, ten days
[4] = system: Tom; experiment: Phytotoxicity Test, tomato; settings: 2500 ppm spray, ten days
Protocol: as §1

[5] = Mammalian Toxicity, peroral toxicity to rat; assay type: in vivo; settings: in vivo, po, read-out: A.O. Rat LD50
Protocol: Certain compounds were also evaluated to determine their peroral toxicity to mammals by conventional methods. The representative animal selected for this experiment was the rat.

[6] = system: root-knot nematode, Meloidogyne incognita var. acrita; experiment: Nematocide Test; note: key: 1: severe galling, equal to untreated plants; 2: moderate galling; 3: light galling; 4: very light galling; 5: no galling, perfect control; assay type: in vivo; settings: 3.33 m.g. per jar; cucumber, approximately 3 weeks
Protocol: The test organism used was the infective migratory larvae of the root-knot nematode, Meloidogyne incognita var. acrita, reared in the greenhouse on roots of cucumber plants. Infected plants were removed from the culture, and the roots are chopped very finely. A small amount of this inoculum was added to a pint jar containing approximately 180 cc. of soil. The jars were capped and incubated for one week at room temperature. During this period eggs of the nematode were hatched, and the larval forms migrated into the soil.
Ten ml. of the test formulation were added to each of the two jars for each dosage tested. Following the addition of chemical, the jars were capped, and the contents thoroughly mixed on a ball mill for 5 minutes.
The test compounds were formulated by a standard procedure of solution in acetone addition of an emulsifier, and dilution with water. Primary screening tests were conducted at 3.33 m.g. of the test compound per jar.
The jars were left capped at room temperature for a period of 48 hours, and the contents then transferred to 3 inch pots. Subsequently, the pots were seeded to cucumber as an indicator crop and placed in the greenhouse where they were cared for in the normal fashion for approximately 3 weeks.
The cucumber plants were then taken from the pots, the soil removed from the roots; and the amount of galling visually rated.
In the test for activity against nematodes (nem) activity was rated as follows: […]

[7] = system: Cotton; experiment: Phytotoxicity Test, cotton; settings: 2500 ppm spray, ten days

Row | SMILES | Phytotoxicity: Corn [1] | Phytotoxicity: Soy [2] | Phytotoxicity: Bean [3] | Phytotoxicity: Tom [4] | LD50 [5] [mg/kg] | Biological Activity: Nem (nematode, galling rating) [6] | Phytotoxicity: Cotton [7]
1 | CSC(C)=NOC(=O)N(C)SN(C)C(=O)ON=CC(C)(C)SC [Example I, N-[2-Methylthio-2-methylpropionaldehyde O-(N-methylcarbamoyl)oxime]N-[1-methylthioacetaldehyde O-(N-methylcarbamoyl)oxime]sulfide] | 1 | 1 | 2 | 1 | 2.1 | 5 | 2
2 | CN(SN(C)C(=O)Oc1cccc2c1OC(C)(C)C2)C(=O)ON=C1CSCCS1 [XXIV, N-[2-O-(N-methylcarbamoyl)oximino-1,4-dithiane]N-[2,3-dihydro-2,2-dimethyl-7-(N-methylcarbamoyloxy)benzofuran]sulfide] | 1 | 2 | 1 | 1 | 20 | 5 | 2
3 | CSC(C)=NOC(=O)N(C)SN(C)C(=O)ON=C(C)SCCC#N [X] | 1 | 1 | 1 | 1 | 67.3 | 1 | 2
4 | CCCCCCCCCc1ccc(OC(=O)N(C)SN(C)C(=O)ON=C(C)SC)cc1 [XXXI] | 1 | 1 | 1 | 1 | > 640 | 5 | 1
5 | CSC(C)=NOC(=O)N(C)SN(C)C(=O)Oc1ccc(SC)c(C)c1 [XV, N-[1-Methylthioacetaldehyde O-(N-methylcarbamoyl)oxime]N-[O-(N-methylcarbamoyl)-4-methylthio-3-methylphenyl]sulfide] | 1 | 1 | 1 | 1 | 40 | 4 | 1
6 | CSC(C)=NOC(=O)N(C)SN(C)C(=O)Oc1cccc2ccccc12 [VII, N-[1-Methylthioacetaldehyde O-(N-methylcarbamoyl)oxime]N-[1-naphthylmethylcarbamate]sulfide] | 1 | 2 | 1 | 1 | 160 | 4 | 2
7 | CSC(C)(C)C=NOC(=O)N(C)SN(C)C(=O)Oc1cccc2ccccc12 [Example VI, N-[2-Methylthio-2-methylpropionaldehyde O-(N-methylcarbamoyl)oxime]N-[1-(N-methylcarbamoyloxy)naphthalene]sulfide] | 1 | 1 | 1 | 1 | 2.97 | 4 | 1
